Measured values published in ChEMBL document CHEMBL4354878, “Structure-Based Bioisosterism Yields HIV-1 NNRTIs with Improved Drug-Resistance Profiles and Favorable Pharmacokinetic Properties” (J Med Chem, 2020).
pEC50, pIC50: −log10 of the molar value. Converted amounts (≈) assume the structure as drawn.

What was measured:
[1] = tested on: Human immunodeficiency virus 1; assay: Antiviral activity against HIV1 RES056 infected in human MT4 cells assessed as protection against virus-induced cytopathic effect incubated for 5 days by MTT assay; format: functional, organism-based; conditions: Human immunodeficiency virus 1, RES056, MT4, 120 h
[2] = tested on: Human immunodeficiency virus 1; assay: Antiviral activity against HIV1 3B infected in human MT4 cells assessed as protection against virus-induced cytopathic effect incubated for 5 days by MTT assay; format: functional, organism-based; conditions: Human immunodeficiency virus 1, 3B, MT4, 120 h
[3] = tested on: Human immunodeficiency virus 1; assay: Antiviral activity against HIV1 expressing RT L100I mutant infected in human MT4 cells assessed as protection against virus-induced cytopathic effect incubated for 5 days by MTT assay; format: functional, organism-based; conditions: Human immunodeficiency virus 1, MT4, 120 h
[4] = tested on: Human immunodeficiency virus 1; assay: Antiviral activity against HIV1 expressing RT K103N mutant infected in human MT4 cells assessed as protection against virus-induced cytopathic effect incubated for 5 days by MTT assay; format: functional, organism-based; conditions: Human immunodeficiency virus 1, MT4, 120 h
[5] = tested on: Human immunodeficiency virus 1; assay: Antiviral activity against HIV1 expressing RT Y181C mutant infected in human MT4 cells assessed as protection against virus-induced cytopathic effect incubated for 5 days by MTT assay; format: functional, organism-based; conditions: Human immunodeficiency virus 1, MT4, 120 h
[6] = tested on: Human immunodeficiency virus 1; assay: Antiviral activity against HIV1 expressing RT Y188L mutant infected in human MT4 cells assessed as protection against virus-induced cytopathic effect incubated for 5 days by MTT assay; format: functional, organism-based; conditions: Human immunodeficiency virus 1, MT4, 120 h
[7] = tested on: Human immunodeficiency virus 1; assay: Antiviral activity against HIV1 expressing RT E138K mutant infected in human MT4 cells assessed as protection against virus-induced cytopathic effect incubated for 5 days by MTT assay; format: functional, organism-based; conditions: Human immunodeficiency virus 1, MT4, 120 h
[8] = tested on: Human immunodeficiency virus 1; format: functional, organism-based; conditions: Human immunodeficiency virus 1, MT4, 120 h
[9] = tested on: Human immunodeficiency virus 1; assay: (§1) Antiviral activity against HIV1 3B infected in human MT4 cells grown under 30 passages in absence of test compound assessed as protection against virus-induced cytopathic effect incubated for 5 days by MTT assay; format: functional, organism-based; conditions: Human immunodeficiency virus 1, 3B, MT4, 120 h
[10] = tested on: Human immunodeficiency virus 1; assay: as §1, with “presence” for “absence”, “(E)-4-((4-((4-(4-(2-Cyanovinyl)-2,6-dimethylphenoxy)thieno[2,3- d]pyrimidin-2-yl)amino)piperidin-1-yl)methyl)benzenesulfonamide” for “test compound”; format: functional, organism-based; conditions: Human immunodeficiency virus 1, 3B, MT4, 120 h
[11] = tested on: Human immunodeficiency virus 1; assay: as §1, with “presence” for “absence”, “4-[[4-[[4-(4-cyano-2,6-dimethylphenoxy)thieno[3,2-d]pyrimidin-2-yl]amino]-1-piperidyl]methyl]benzenesulfonamide” for “test compound”; format: functional, organism-based; conditions: Human immunodeficiency virus 1, 3B, MT4, 120 h
[12] = tested on: Human immunodeficiency virus 1; assay: as §1, with “presence” for “absence”, “4-[[4-[[4-[4-[2-cyanovinyl]-2,6-dimethylphenoxy]thieno[3,2-d]pyrimidin-2-yl]amino]-1-piperidyl]methyl]benzenesulfonamide” for “test compound”; format: functional, organism-based; conditions: Human immunodeficiency virus 1, 3B, MT4, 120 h
[13] = biological target: Human immunodeficiency virus type 1 reverse transcriptase (Human immunodeficiency virus 1, UniProt Q72547); assay: Inhibition of HIV1 RT in presence of reconstituted template and viral nucleotides [digoxigenin (DIG)-dUTP, biotin-dUTP and dTTP] incubated for 1 hr by ELISA method
[14] = biological target: Human immunodeficiency virus type 1 reverse transcriptase (Human immunodeficiency virus 1, UniProt Q72547, K103N); assay: Inhibition of HIV1 RT K103N mutant in presence of reconstituted template and viral nucleotides [digoxigenin (DIG)-dUTP, biotin-dUTP and dTTP] incubated for 1 hr by ELISA method
[15] = biological target: Human immunodeficiency virus type 1 reverse transcriptase (Human immunodeficiency virus 1, UniProt Q72547, Y181C); assay: Inhibition of HIV1 RT Y181C mutant in presence of reconstituted template and viral nucleotides [digoxigenin (DIG)-dUTP, biotin-dUTP and dTTP] incubated for 1 hr by ELISA method
[16] = biological target: Human immunodeficiency virus type 1 reverse transcriptase (Human immunodeficiency virus 1, UniProt Q72547, Y188L); assay: Inhibition of HIV1 RT Y188L mutant in presence of reconstituted template and viral nucleotides [digoxigenin (DIG)-dUTP, biotin-dUTP and dTTP] incubated for 1 hr by ELISA method
[17] = biological target: Human immunodeficiency virus type 1 reverse transcriptase (Human immunodeficiency virus 1, UniProt Q72547, E138K); assay: Inhibition of HIV1 RT E138K mutant in presence of reconstituted template and viral nucleotides [digoxigenin (DIG)-dUTP, biotin-dUTP and dTTP] incubated for 1 hr by ELISA method
[18] = biological target: Human immunodeficiency virus type 1 reverse transcriptase (Human immunodeficiency virus 1, UniProt Q72547, K103N/Y181C); assay: Inhibition of HIV1 RT K103N/Y181C mutant in presence of reconstituted template and viral nucleotides [digoxigenin (DIG)-dUTP, biotin-dUTP and dTTP] incubated for 1 hr by ELISA method
[19] = Toxicity in Kunming mouse assessed as induction of toxic symptoms at 2000 mg/kg, ig measured 2 hrs post dose and then measured every 48 hrs for 14 days; format: organism-based; conditions: in vivo, po
[20] = Toxicity in Kunming mouse assessed as induction of mortality at 2000 mg/kg, ig measured 2 hrs post dose and then measured every 48 hrs for 14 days; format: organism-based; conditions: in vivo, po
[21] = Toxicity in Kunming mouse assessed as induction of abnormal behaviors at 2000 mg/kg, ig measured 2 hrs post dose and then measured every 48 hrs for 14 days; format: organism-based; conditions: in vivo, po
[22] = Toxicity in Kunming mouse assessed as induction of body weight changes at 2000 mg/kg, ig measured 2 hrs post dose and then measured every 48 hrs for 14 days; format: organism-based; conditions: in vivo, po
[23] = tested on: MT4; assay: Cytotoxicity against human MT4 cells assessed as reduction in cell viability incubated for 5 days by MTT assay; format: functional; conditions: MT4, 120 h
[24] = Selectivity index, ratio of CC50 for human MT4 cells to EC50 for antiviral activity against HIV1 3B infected in human MT4 cells
[25] = Selectivity index, ratio of CC50 for human MT4 cells to EC50 for antiviral activity against HIV1 RES056 infected in human MT4 cells
[26] = Aqueous solubility of the compound in pH 7 buffer; format: physicochemical
[27] = Solubility of the compound in pH 7.4 buffer by HPLC analysis
[28] = Solubility of the compound in pH 7.0 buffer by HPLC analysis
[29] = Solubility of the compound in pH 2.0 buffer by HPLC analysis
[30] = tested on: Human immunodeficiency virus 1; assay: Resistance index, ratio of EC50 for antiviral activity against HIV1 3B infected in human MT4 cells grown under 30 passages in presence of (E)-4-((4-((4-(4-(2-Cyanovinyl)-2,6-dimethylphenoxy)thieno[2,3- d]pyrimidin-2-yl)amino)piperidin-1-yl)methyl)benzenesulfonamide to EC50 for antiviral activity against HIV1 3B infected in human MT4 cells; format: functional
[31] = tested on: Human immunodeficiency virus 1; assay: Resistance index, ratio of EC50 for antiviral activity against HIV1 3B infected in human MT4 cells grown under 30 passages in presence of 4-[[4-[[4-(4-cyano-2,6-dimethylphenoxy)thieno[3,2-d]pyrimidin-2-yl]amino]-1-piperidyl]methyl]benzenesulfonamide to EC50 for antiviral activity against HIV1 3B infected in human MT4 cells; format: functional
[32] = tested on: Human immunodeficiency virus 1; assay: Resistance index, ratio of EC50 for antiviral activity against HIV1 3B infected in human MT4 cells grown under 30 passages in presence of 4-[[4-[[4-[4-[2-cyanovinyl]-2,6-dimethylphenoxy]thieno[3,2-d]pyrimidin-2-yl]amino]-1-piperidyl]methyl]benzenesulfonamide to EC50 for antiviral activity against HIV1 3B infected in human MT4 cells; format: functional

Row | SMILES | pEC50 [3] | pEC50 [4] | pEC50 [5] | pEC50 [6] | pEC50 [9] | pEC50 [10] | pEC50 [11] | pEC50 [12] | Ratio EC50 [30] | Ratio EC50 [31] | Ratio EC50 [32] | other results
1 | Cc1cc(/C=C/C#N)cc(C)c1Oc1nc(NC2CCN(Cc3ccc(S(N)(=O)=O)cc3)CC2)nc2sccc12 | 8.69 | 8.63 | 8.18 | 8.12 | 8.39 | 5.44 | 5.75 | 6.06 | – | – | – | pEC50 [1]: 8.19; pEC50 [2]: 8.49; pEC50 [7]: 8.17; pEC50 [8]: 8.32; pIC50 [13]: 6.94; pIC50 [14]: 6.65; pIC50 [15]: 6.85; pIC50 [16]: 6.34; pIC50 [17]: 6.43; pIC50 [18]: 6.92; Activity [19]: Non-Toxic; Activity [20]: Non-Toxic; Activity [21]: Non-Toxic; Activity [22]: Non-Toxic
2 | Cc1cc(/C=C/C#N)cc(C)c1Oc1nc(NC2CCN(Cc3cccc(C(N)=O)c3)CC2)nc2sccc12 | 8.24 | 8.26 | 7.75 | 7.40 | – | – | – | – | – | – | – | pEC50 [1]: 7.21; pEC50 [2]: 8.24; CC50 [23]: 3950 nM; selectivity ratio [24]: 689; selectivity ratio [25]: 64; pEC50 [7]: 7.74; pEC50 [8]: 7.91
3 | Cc1cc(C#N)cc(C)c1Oc1nc(Nc2ccc(C#N)cc2)nc(N)c1Br [ETRAVIRINE] | 8.27 | 8.63 | 7.80 | 7.69 | – | 5.91 | 6.28 | 6.43 | – | – | – | solubility [26]: < 1 µg/mL; solubility [27]: < 1 µg/mL; solubility [28]: < 1 µg/mL; solubility [29]: 127 µg/mL (≈ 292 µM)
4 | Cc1ccnc2c1NC(=O)c1cccnc1N2C1CC1 [NEVIRAPINE] | – | – | – | – | 7.06 | 5.42 | < 5.02 | < 5.02 | 43 | >108 | >108 | –
5 | Cc1cc(/C=C/C#N)cc(C)c1Nc1ccnc(Nc2ccc(C#N)cc2)n1 [RILPIVIRINE] | – | – | – | – | – | < 5.41 | 7.05 | 7.22 | – | – | – | solubility [27]: < 1 µg/mL; solubility [28]: < 1 µg/mL; solubility [29]: 103 µg/mL (≈ 281 µM)
6 | C[C@H](Cn1cnc2c(N)ncnc21)OCP(=O)(O)O [TENOFOVIR ANHYDROUS] | – | – | – | – | 5.38 | 5.66 | 5.42 | 5.48 | 0.5 | 0.9 | 0.8 | –
7 | Cc1cn([C@H]2C[C@H](N=[N+]=[N-])[C@@H](CO)O2)c(=O)[nH]c1=O [ZIDOVUDINE] | – | – | – | – | 7.90 | 9.00 | 8.29 | 8.31 | 0.1 | 0.4 | 0.4 | –
